Tested on: mice
Assay: Acute toxicity study
Format: in vivo, albino mice
Details: i.p., doses 25 to 1000 mg/kg
Protocol: In our study, experimental animals (albino mice male/female weighing 18-32 gm) were obtained from the National Institute of Health (NIH), Islamabad, Pakistan. These animals were provided adequate food, water, and light (ad libitum). Appropriate conditions were maintained as per laboratory specifications, including a temperature of 22°C a dark and light cycle of 12 hours each. As per the Animals Scientific Procedure Act 1986, UK, the in-vivo studies were performed on experimental animals from 9:00 am to 4:00 pm. The departmental committee of research ethics of the Pharmacy Department, University of Malakand, approved the study protocol via reference no DREC/20210622/50.
Acute toxicity was carried out for the safety profile assessment of our test compounds. For this purpose, the mice were grouped into six different groups (n = 6). The test compound was given to each mouse at different doses (25 to 1000 mg/kg) via the intraperitoneal (i.p) route. Changes in behaviour such as convulsions, hyperactivity, writhing, sedation, righting reflex, aggressiveness, grooming, ataxia, motor activity (increased or decreased), respiratory arrest, and mortality were observed after the administration of sample solution for the first two hours and then again for 24 hours.

SMILES: COc1ccc(C/N=C(/C)[C@H]2CC[C@H]3[C@@H]4CCC5=CC(=O)CC[C@]5(C)[C@H]4CC[C@]23C)cc1 [AN1, (8S,9S,10R,13S,14S)-17-((Z)-1-((4-methoxybenzyl)imino)ethyl)-10,13-dimethyl-1,2,6,7,8,9,10,11,12,13,14,15,16,17-tetradecahydro-3H-cyc-lopenta[a]phenanthren-3-one]
- toxic dose (mortality observed): ≥ 1000 mg/kg
- dose safe, without toxic effects, mortality or unusual behavioral response (observed 2 h and 24 h): ≤ 500 mg/kg

— paper PMC12645137 (Current Neuropharmacology, 2025)
